Measurements from the NIST ThermoML archive (doi:10.1021/je3013414).
Numbers after ± are expanded uncertainties.

Tests used:
[1] = 101.33 kPa, Liquid, Vibrating tube method
[2] = refractive index (Na D-line) (dimensionless); conditions: 298.15 K; 101.33 kPa; Liquid; Standard Abbe refractometry

mass density ([1]; 303.15 K) [kg/m3] | mass density ([1]; 313.15 K) [kg/m3] | mass density ([1]; 323.15 K) [kg/m3] | mass density ([1]; 333.15 K) [kg/m3] | mass density ([1]; 343.15 K) [kg/m3] | mass density ([1]; 353.15 K) [kg/m3] | mass density ([1]; 363.15 K) [kg/m3] | refractive index [2] | SMILES
1361.3 ± 1.7 | 1353 ± 1.6 | 1344.8 ± 1.6 | 1336.7 ± 1.6 | 1328.5 ± 1.6 | 1320.5 ± 1.6 | 1312.4 ± 1.5 | 1.4106 ± 0.0005 | CCCCn1cc[n+](C)c1.F[P-](F)(F)(F)(F)F [1-butyl-3-methylimidazolium hexafluorophosphate]
1233.7 ± 1.4 | 1226.9 ± 1.3 | 1220.2 ± 1.3 | 1213.6 ± 1.3 | 1207 ± 1.3 | 1200.4 ± 1.3 | 1193.9 ± 1.3 | 1.4106 ± 0.0005 | CCOS(=O)(=O)[O-].CCn1cc[n+](C)c1 [1-ethyl-3-methylimidazolium ethyl sulfate]
